Laboratory results from patent publication US11981658B2, “Substituted aminopyridine compounds as EGFR inhibitors” (YUHAN CORPORATION, priority 2021, dated 2024).
Where two headings read alike, the source gives them in different places.

What was measured:
[1] = target: EGFR L858R/T790M/C797S (Homo sapiens, UniProt P00533, C797S/L858R/T790M); assay: Biochemical EGFR kinase inhibition assay (Lance Ultra TR-FRET), triple mutant L858R/T790M/C797S
Method in brief: (§1)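 In this biochemical assay, phosphorylation after a one-hour room-temperature reaction was detected with europium-labelled anti-phosphopeptide antibody at 2 nM final concentration.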

[2] = target: EGFR Del19/C797S (Homo sapiens, UniProt P00533, C797S/DEL746-750); assay: Biochemical EGFR kinase inhibition assay (Lance Ultra TR-FRET), double mutant del19/C797S
EGFR Del19/C797S, sequence (P00533 with tags, fused parts or gaps DEL746-750/C797S): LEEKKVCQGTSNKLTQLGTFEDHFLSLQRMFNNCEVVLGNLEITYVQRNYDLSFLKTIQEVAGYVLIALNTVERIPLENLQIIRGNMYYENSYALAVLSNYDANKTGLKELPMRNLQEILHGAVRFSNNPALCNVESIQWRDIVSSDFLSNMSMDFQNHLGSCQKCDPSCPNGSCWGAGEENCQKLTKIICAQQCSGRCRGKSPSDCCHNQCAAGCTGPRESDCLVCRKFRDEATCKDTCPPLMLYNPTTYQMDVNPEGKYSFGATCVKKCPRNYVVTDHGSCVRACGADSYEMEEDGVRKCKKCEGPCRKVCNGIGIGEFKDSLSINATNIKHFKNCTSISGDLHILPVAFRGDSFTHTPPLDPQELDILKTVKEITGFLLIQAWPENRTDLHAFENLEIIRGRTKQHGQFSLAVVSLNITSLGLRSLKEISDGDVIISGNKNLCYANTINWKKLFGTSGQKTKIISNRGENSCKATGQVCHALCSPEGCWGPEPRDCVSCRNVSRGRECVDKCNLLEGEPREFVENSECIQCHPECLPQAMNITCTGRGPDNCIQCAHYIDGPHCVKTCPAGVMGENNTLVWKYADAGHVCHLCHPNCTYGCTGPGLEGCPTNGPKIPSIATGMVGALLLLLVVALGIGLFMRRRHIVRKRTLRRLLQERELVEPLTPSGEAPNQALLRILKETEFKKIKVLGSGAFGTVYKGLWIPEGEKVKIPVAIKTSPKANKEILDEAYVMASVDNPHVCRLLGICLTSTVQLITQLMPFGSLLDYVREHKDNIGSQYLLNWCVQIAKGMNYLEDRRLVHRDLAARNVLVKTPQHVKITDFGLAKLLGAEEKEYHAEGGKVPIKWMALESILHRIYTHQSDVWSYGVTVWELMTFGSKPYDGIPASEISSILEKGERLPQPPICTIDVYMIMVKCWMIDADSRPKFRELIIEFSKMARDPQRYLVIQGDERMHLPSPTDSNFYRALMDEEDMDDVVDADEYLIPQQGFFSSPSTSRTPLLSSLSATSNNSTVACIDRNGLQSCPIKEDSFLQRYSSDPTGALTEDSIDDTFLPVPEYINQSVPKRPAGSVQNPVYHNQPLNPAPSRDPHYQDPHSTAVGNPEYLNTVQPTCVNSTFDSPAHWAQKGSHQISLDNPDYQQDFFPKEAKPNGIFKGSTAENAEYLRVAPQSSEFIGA
Method in brief: as §1

[3] = target: EGFR L858R/C797S (Homo sapiens, UniProt P00533, C797S/L858R); assay: Biochemical EGFR kinase inhibition assay (Lance Ultra TR-FRET), double mutant L858R/C797S
EGFR L858R/C797S, sequence (P00533 25-1210 C797S/L858R): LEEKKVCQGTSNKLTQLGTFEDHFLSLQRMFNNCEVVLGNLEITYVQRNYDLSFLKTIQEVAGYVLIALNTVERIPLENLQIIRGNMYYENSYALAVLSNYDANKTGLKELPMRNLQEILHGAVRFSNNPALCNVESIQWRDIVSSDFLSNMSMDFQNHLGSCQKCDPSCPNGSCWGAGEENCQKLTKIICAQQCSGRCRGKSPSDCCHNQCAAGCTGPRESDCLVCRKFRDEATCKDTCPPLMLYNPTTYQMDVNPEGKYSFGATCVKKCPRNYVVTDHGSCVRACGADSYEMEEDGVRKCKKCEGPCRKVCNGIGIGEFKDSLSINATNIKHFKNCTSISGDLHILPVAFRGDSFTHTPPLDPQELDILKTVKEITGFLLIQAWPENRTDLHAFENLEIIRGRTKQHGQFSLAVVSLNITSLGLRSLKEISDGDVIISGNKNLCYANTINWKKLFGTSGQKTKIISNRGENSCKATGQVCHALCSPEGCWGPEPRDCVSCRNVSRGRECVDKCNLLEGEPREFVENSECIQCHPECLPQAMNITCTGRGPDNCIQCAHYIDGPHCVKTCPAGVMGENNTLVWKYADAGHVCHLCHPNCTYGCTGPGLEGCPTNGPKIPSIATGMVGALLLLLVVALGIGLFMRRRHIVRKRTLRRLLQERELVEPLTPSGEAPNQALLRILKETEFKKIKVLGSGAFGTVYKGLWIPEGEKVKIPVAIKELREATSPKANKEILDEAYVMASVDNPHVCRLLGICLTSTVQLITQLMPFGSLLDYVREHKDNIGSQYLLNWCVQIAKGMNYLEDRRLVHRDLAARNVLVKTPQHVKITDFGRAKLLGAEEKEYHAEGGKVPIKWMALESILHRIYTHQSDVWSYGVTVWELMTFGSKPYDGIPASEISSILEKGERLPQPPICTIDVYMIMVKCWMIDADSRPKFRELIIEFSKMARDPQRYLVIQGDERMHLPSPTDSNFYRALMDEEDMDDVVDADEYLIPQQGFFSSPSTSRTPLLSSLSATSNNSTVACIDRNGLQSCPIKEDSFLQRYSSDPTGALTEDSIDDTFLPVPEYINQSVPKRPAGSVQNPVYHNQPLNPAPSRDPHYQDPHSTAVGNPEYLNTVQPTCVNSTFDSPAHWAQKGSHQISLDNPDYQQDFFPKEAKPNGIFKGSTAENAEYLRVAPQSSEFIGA
Method in brief: as §1

[4] = target: EGFR Del19/T790M/C797S (Homo sapiens, UniProt P00533, C797S/DEL746-750/T790M); assay: Biochemical EGFR kinase inhibition assay (Lance Ultra TR-FRET), triple mutant del19/T790M/C797S
Method in brief: as §1

[5] = target: EGFR wildtype (WT) (Homo sapiens, UniProt P00533); assay: Biochemical EGFR kinase inhibition assay (Lance Ultra TR-FRET), wildtype
EGFR wildtype (WT), sequence (P00533 25-1210): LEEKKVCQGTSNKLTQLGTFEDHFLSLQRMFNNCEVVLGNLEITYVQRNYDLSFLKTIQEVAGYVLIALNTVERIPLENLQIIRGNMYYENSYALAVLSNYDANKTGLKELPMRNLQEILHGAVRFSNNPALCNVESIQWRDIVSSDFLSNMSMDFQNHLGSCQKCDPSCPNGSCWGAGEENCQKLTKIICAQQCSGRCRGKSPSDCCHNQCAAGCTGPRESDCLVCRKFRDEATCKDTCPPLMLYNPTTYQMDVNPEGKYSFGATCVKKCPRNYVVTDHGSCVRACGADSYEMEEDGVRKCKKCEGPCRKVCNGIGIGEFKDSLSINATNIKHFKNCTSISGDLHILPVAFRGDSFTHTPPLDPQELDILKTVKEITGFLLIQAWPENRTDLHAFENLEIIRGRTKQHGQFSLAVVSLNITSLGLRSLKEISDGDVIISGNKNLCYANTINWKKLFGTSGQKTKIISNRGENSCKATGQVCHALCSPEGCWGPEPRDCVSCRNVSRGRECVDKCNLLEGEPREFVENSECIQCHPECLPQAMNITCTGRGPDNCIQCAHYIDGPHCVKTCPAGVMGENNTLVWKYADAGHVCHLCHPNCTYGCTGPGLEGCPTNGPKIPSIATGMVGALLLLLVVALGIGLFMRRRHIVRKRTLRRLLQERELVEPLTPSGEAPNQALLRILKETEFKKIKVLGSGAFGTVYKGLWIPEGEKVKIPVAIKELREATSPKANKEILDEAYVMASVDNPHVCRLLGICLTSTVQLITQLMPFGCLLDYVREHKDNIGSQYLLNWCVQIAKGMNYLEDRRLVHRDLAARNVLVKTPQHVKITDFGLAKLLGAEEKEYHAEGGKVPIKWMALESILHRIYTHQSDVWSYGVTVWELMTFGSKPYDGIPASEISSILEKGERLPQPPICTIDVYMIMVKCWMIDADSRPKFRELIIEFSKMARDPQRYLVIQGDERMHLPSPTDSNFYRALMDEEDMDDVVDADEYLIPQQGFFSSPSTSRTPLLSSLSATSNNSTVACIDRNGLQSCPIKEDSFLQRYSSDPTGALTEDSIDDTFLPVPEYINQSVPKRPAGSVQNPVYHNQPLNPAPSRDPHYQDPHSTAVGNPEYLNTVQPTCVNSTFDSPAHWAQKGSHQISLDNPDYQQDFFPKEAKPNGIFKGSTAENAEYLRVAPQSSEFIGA
Method in brief: as §1

[6] = ATP at Km, read-out: IC50 L858R/T790M/C797S (nM), Km ATP
[7] = IC50 L858R/T790M/C797S (nM), 100 μM ATP
[8] = ATP at Km, read-out: IC50 Del19/C797S (nM), Km ATP
[9] = IC50 Del19/C797S (nM), 100 μM ATP
[10] = ATP at Km, read-out: IC50 L858R/C797S (nM), Km ATP
[11] = IC50 L858R/C797S (nM), 100 μM ATP
[12] = ATP at Km, read-out: IC50 Del19/T790M/C797S (nM), Km ATP
[13] = IC50 Del19/T790M/C797S (nM), 100 μM ATP
[14] = ATP at Km, read-out: IC50 WT (nM), Km ATP
[15] = read-out: IC50 L858R/T790M/C797S (nM), 100 μM ATP
[16] = read-out: IC50 Del19/C797S (nM), 100 μM ATP
[17] = read-out: IC50 L858R/C797S (nM), 100 μM ATP
[18] = read-out: IC50 Del19/T790M/C797S (nM), 100 μM ATP
[19] = read-out: IC50 WT (nM), 100 μM ATP

EGFR L858R/T790M/C797S, sequence (P00533 25-1210 T790M/C797S/L858R): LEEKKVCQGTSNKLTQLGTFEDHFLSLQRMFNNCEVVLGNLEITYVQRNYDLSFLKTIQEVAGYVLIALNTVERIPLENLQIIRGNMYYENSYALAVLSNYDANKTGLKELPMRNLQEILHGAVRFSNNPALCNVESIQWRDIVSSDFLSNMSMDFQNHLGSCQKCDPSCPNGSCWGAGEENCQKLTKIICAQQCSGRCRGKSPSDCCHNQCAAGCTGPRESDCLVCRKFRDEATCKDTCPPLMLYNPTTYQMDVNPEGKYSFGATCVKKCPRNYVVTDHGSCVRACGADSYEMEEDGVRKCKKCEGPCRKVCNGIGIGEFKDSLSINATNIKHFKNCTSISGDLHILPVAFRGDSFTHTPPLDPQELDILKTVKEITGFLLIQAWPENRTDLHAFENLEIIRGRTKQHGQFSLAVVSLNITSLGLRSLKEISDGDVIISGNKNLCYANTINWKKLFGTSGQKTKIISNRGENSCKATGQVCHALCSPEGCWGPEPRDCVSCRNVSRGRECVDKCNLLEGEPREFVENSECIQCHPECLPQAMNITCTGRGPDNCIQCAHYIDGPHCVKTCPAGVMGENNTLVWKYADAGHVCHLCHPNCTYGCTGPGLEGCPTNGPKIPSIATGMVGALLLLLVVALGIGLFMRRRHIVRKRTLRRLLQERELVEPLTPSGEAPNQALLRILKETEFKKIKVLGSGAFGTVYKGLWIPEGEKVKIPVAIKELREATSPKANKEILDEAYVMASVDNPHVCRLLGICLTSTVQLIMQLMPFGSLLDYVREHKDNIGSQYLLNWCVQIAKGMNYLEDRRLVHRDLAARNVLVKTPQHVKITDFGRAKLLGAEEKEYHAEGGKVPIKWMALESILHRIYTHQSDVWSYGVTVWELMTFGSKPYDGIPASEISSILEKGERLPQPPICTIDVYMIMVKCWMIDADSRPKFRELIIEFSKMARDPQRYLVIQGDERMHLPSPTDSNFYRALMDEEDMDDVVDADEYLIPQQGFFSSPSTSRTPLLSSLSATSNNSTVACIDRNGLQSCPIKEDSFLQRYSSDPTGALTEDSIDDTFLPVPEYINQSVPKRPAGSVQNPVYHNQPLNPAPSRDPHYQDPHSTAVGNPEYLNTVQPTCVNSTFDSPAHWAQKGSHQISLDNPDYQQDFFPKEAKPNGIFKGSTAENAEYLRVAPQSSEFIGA

Row | Compound | IC50 [1, 7] [nM] | IC50 [2, 9] [nM] | IC50 [3, 11] [nM] | IC50 [4, 13] [nM] | IC50 ([5]; IC50 WT (nM), 100 μM ATP) [nM] | also measured
1 | O=S(=O)(C1CC1)n1cc(-c2nccc(Nc3cc(NC4CCC(O)CC4)c(C#CC4CCOC4)cn3)n2)cn1 (centres unmarked) [Example 198, (1s,4s)-4-((2-((2-(1-(Cyclopropylsulfonyl)-1H-pyrazol-4-yl)pyrimidin-4-yl)amino)-5-((tetrahydrofuran-3-yl)ethynyl)pyridin-4-yl)amino)cyclohexan-1-ol] | 0.6 | 3.6 | 50.8 | 0.5 | 5980 | IC50 [1, 6]: 0.2 nM; IC50 [2, 8]: 2.1 nM; IC50 [3, 10]: 2.5 nM; IC50 [4, 12]: 0.4 nM; IC50 [5, 14]: 25.1 nM
2 | CC(C)Nc1cc(Nc2ccnc(-c3cnn(S(=O)(=O)C4CC4)c3)n2)ncc1C#CCN1CCS(=O)(=O)CC1 [Example 201, 4-(3-(6-((2-(1-(Cyclopropylsulfonyl)-1H-pyrazol-4-yl)pyrimidin-4-yl)amino)-4-(isopropylamino)pyridin-3-yl)prop-2-yn-1-yl)thiomorpholine 1,1-dioxide] |  |  |  |  |  | IC50 [1, 6]: 1.2 nM; IC50 [2, 8]: 36.7 nM; IC50 [3, 10]: 141 nM; IC50 [4, 12]: 1.7 nM; IC50 [5, 14]: 292 nM
3 | CC(C)Nc1cc(Nc2ccnc(-c3cnn(S(=O)(=O)C4CC4)c3)n2)ncc1C#CCN1CCOCC1 [Example 202, N^2-(2-(1-(Cyclopropylsulfonyl)-1H-pyrazol-4-yl)pyrimidin-4-yl)-N^4-isopropyl-5-(3-morpholinoprop-1-yn-1-yl)pyridine-2,4-diamine] |  |  |  |  |  | IC50 [1, 6]: 1.6 nM; IC50 [2, 8]: 43.4 nM; IC50 [3, 10]: 92.7 nM; IC50 [4, 12]: 2.2 nM; IC50 [5, 14]: 312 nM
4 | CC(C)Nc1cc(Nc2ccnc(-c3cnn(S(=O)(=O)C4CC4)c3)n2)ncc1C#CCN1CCCC1 [Example 203, N^2-(2-(1-(Cyclopropylsulfonyl)-1H-pyrazol-4-yl)pyrimidin-4-yl)-N^4-isopropyl-5-(3-(pyrrolidin-1-yl)prop-1-yn-1-yl)pyridine-2,4-diamine] |  |  |  |  |  | IC50 [1, 6]: 1.4 nM; IC50 [2, 8]: 68.1 nM; IC50 [3, 10]: 110 nM; IC50 [4, 12]: 2.2 nM; IC50 [5, 14]: 437 nM
5 | CC(C)Nc1cc(Nc2ccnc(-c3cnn(S(=O)(=O)C4CC4)c3)n2)ncc1C#CCCCCNC(=O)N1CCOCC1 [Example 209, N-(6-(6-((2-(1-(Cyclopropylsulfonyl)-1H-pyrazol-4-yl)pyrimidin-4-yl)amino)-4-(isopropylamino)pyridin-3-yl)hex-5-yn-1-yl)morpholine-4-carboxamide] | 4.4 | 120 | 112 | 2.6 | > 10000 | 
6 | Cc1nc(C#Cc2cnc(Nc3ccnc(-c4cnn(S(=O)(=O)C5CC5)c4)n3)cc2N2CCC(O)CC2)cs1 [Example 211, 1-(2-((2-(1-(Cyclopropylsulfonyl)-1H-pyrazol-4-yl)pyrimidin-4-yl)amino)-5-((2-methylthiazol-4-yl)ethynyl)pyridin-4-yl)piperidin-4-ol] | 6.9 | 32.3 | 66.2 | 1.4 | > 10000 | 
7 | Cn1cnc(C#Cc2cnc(Nc3ccnc(-c4cnn(S(=O)(=O)C5CC5)c4)n3)cc2N[C@H]2CC[C@@H](O)CC2)c1 [Example 216, (1s,4s)-4-((2-((2-(1-(Cyclopropylsulfonyl)-1H-pyrazol-4-yl)pyrimidin-4-yl)amino)-5-((1-methyl-1H-imidazol-4-yl)ethynyl)pyridin-4-yl)amino)cyclohexan-1-ol] |  |  |  |  |  | IC50 [1, 15]: 0.8 nM; IC50 [2, 16]: 4.9 nM; IC50 [3, 17]: 28 nM; IC50 [4, 18]: 0.7 nM; IC50 [5, 19]: > 10000 nM
8 | CN(C)C(=O)Cn1cc(C#Cc2cnc(Nc3ccnc(-c4cnn(S(=O)(=O)C5CC5)c4)n3)cc2N[C@H]2CC[C@@](C)(O)CC2)cn1 [Example 221, 2-(4-((6-((2-(1-(Cyclopropylsulfonyl)-1H-pyrazol-4-yl)pyrimidin-4-yl)amino)-4-(((1s,4s)-4-hydroxy-4-methylcyclohexyl)amino)pyridin-3-yl)ethynyl)-1H-pyrazol-1-yl)-N,N-dimethylacetamide] |  |  |  |  |  | IC50 ([1]; Km ATP, read-out: IC50 L858R/T790M/C797S (nM) Km ATP): 0.8 nM; IC50 [1, 15]: 2.2 nM; IC50 ([2]; Km ATP, read-out: IC50 Del19/C797S (nM) Km ATP): 6.3 nM; IC50 [2, 16]: 8.4 nM; IC50 ([3]; Km ATP, read-out: IC50 L858R/C797S (nM) Km ATP): 3.8 nM; IC50 [3, 17]: 33 nM; IC50 ([4]; Km ATP, read-out: IC50 Del19/T790M/C797S (nM) Km ATP): 2.9 nM; IC50 [4, 18]: 2 nM; IC50 ([5]; Km ATP, read-out: IC50 WT (nM) Km ATP): 65 nM; IC50 [5, 19]: > 10000 nM

Second part, led by results:

Row | IC50 [1, 7] [nM] | IC50 [2, 9] [nM] | IC50 [3, 11] [nM] | IC50 [4, 13] [nM] | IC50 ([5]; IC50 WT (nM), 100 μM ATP) [nM] | Compound | also measured
9 | 8.9 | 44.8 | 97.6 | 1.5 | > 10000 | O=S(=O)(C1CC1)n1cc(-c2nccc(Nc3cc(N4CCC(O)CC4)c(C#Cc4csc(CF)n4)cn3)n2)cn1 [Example 212, 1-(2-((2-(1-(Cyclopropylsulfonyl)-1H-pyrazol-4-yl)pyrimidin-4-yl)amino)-5-((2-(fluoromethyl)thiazol-4-yl)ethynyl)pyridin-4-yl)piperidin-4-ol] | 
10 | 1.4 | 8.8 | 37.5 | 0.7 | > 10000 | Cn1cnc(C#Cc2cnc(Nc3ccnc(-c4cnn(S(=O)(=O)C5CC5)c4)n3)cc2N2CCC(O)CC2)c1 [Example 213, 1-(2-((2-(1-(Cyclopropylsulfonyl)-1H-pyrazol-4-yl)pyrimidin-4-yl)amino)-5-((1-methyl-1H-imidazol-4-yl)ethynyl)pyridin-4-yl)piperidin-4-ol] | 
11 | 4 | 109 | 274 | 1.4 | > 10000 | Cn1cnc(C#Cc2cnc(Nc3ccnc(-c4cnn(S(=O)(=O)C5CC5)c4)n3)cc2N2CCC(O)CC2)n1 [Example 214, 1-(2-((2-(1-(Cyclopropylsulfonyl)-1H-pyrazol-4-yl)pyrimidin-4-yl)amino)-5-((1-methyl-1H-1,2,4-triazol-3-yl)ethynyl)pyridin-4-yl)piperidin-4-ol] | 
12 | 11.4 | 46.9 | 213 | 2.9 | > 10000 | O=S(=O)(C1CC1)n1cc(-c2nccc(Nc3cc(N4CCC(O)CC4)c(C#Cc4ccc(N5CCOCC5)nc4)cn3)n2)cn1 [Example 215, 1-(2-((2-(1-(Cyclopropylsulfonyl)-1H-pyrazol-4-yl)pyrimidin-4-yl)amino)-5-((6-morpholinopyridin-3-yl)ethynyl)pyridin-4-yl)piperidin-4-ol] | 
13 | 14.5 | 28.3 | 238 | 2.6 | > 10000 | O=S(=O)(C1CC1)n1cc(-c2nccc(Nc3cc(N[C@H]4CC[C@@H](O)CC4)c(C#Cc4ccsc4)cn3)n2)cn1 [Example 217, (1s,4s)-4-((2-((2-(1-(Cyclopropylsulfonyl)-1H-pyrazol-4-yl)pyrimidin-4-yl)amino)-5-(thiophen-3-ylethynyl)pyridin-4-yl)amino)cyclohexan-1-ol] | 
14 | 0.8 | 6.7 | 44.7 | 0.5 | > 10000 | Cn1cnc(C#Cc2cnc(Nc3ccnc(-c4cnn(S(=O)(=O)C5CC5)c4)n3)cc2N[C@@H]2CC[C@H](O)C2)c1 [Example 223, (1S,3R)-3-((2-((2-(1-(Cyclopropylsulfonyl)-1H-pyrazol-4-yl)pyrimidin-4-yl)amino)-5-((1-methyl-1H-imidazol-4-yl)ethynyl)pyridin-4-yl)amino)cyclopentan-1-ol] | 
15 | 26.1 | 37.7 | 286 | 1.8 | > 10000 | Cn1cnc(C#Cc2cnc(Nc3ccnc(-c4cnn(S(=O)(=O)C5CC5)c4)n3)cc2NCC(C)(C)CO)c1 [Example 224, 3-((2-((2-(1-(Cyclopropylsulfonyl)-1H-pyrazol-4-yl)pyrimidin-4-yl)amino)-5-((1-methyl-1H-imidazol-4-yl)ethynyl)pyridin-4-yl)amino)-2,2-dimethylpropan-1-ol] | 
16 | 12.3 | 87.8 | 310 | 6.4 | > 10000 | O=S(=O)(C1CC1)n1cc(-c2nccc(Nc3cc(N[C@H]4CCC[C@H](O)C4)c(C#Cc4ccsc4)cn3)n2)cn1 [Example 225, (1 S,3S)-3-((2-((2-(1-(Cyclopropylsulfonyl)-1H-pyrazol-4-yl)pyrimidin-4-yl)amino)-5-(thiophen-3-ylethynyl)pyridin-4-yl)amino)cyclohexan-1-ol] | 
17 | 1.1 | 5.1 | 43.4 | 1.1 | > 10000 | CN1CCN(C2CCN(c3cc(Nc4ccnc(-c5cnn(S(=O)(=O)C6CC6)c5)n4)ncc3C#Cc3ccsc3)CC2)CC1 [Example 226, 2-(1-(Cyclopropylsulfonyl)-1H-pyrazol-4-yl)-N-(4-(4-(4-methylpiperazin-1-yl)piperidin-1-yl)-5-(thiophen-3-ylethynyl)pyridin-2-yl)pyrimidin-4-amine] | 
